Experiments:
DCAF15/RBM39 = DCAF15/RBM39 (Homo sapiens, UniProt Q14498+Q66K64); test: AlphaLISA compound-induced DCAF15-RBM39 ternary complex formation; type: binding; settings: His-tagged DCAF15 complex and biotin-carrying RBM39
Description: Example 6: Quantitative Evaluation of Compound-Induced Ternary Complex Formation Using Amplified Luminescent Proximity Homogeneous Assay
Compound-induced DCAF15-RBM39 ternary complex formation was monitored using AlphaLISA® assays (Perkin Elmer, Waltham, MA). Test compounds were first collected in a 384-well microplate (cat. #781280, Grenier Bio-One, Monroe, NC) as 2 mM stocks in 100% dimethyl sulfoxide (DMSO). These stocks were then serially diluted in DMSO by 3-fold into a new plate (cat. #781280, Grenier Bio-One, Monroe, NC) using a Mosquito HTS dispenser (mosquito@ HTS, SPT Labtech, Boston, MA). 0.2 ul of these diluted stocks were then dispensed into a 384-well Optiplate (cat. #6007290, Perkin Elmer, Waltham, MA) in duplicate wells, to assemble the final assay plate consisting of duplicated dose ranges. Separately, a protein mixture consisting of His-tagged DCAF15 complex and biotin-carrying RBM39, each at 408 nM (2.04×), was prepared in 50 mM HEPES, pH 7.5, 100 mM NaCl, 2 mM MgCl2, 0.1% BSA, 2 mM TCEP, 0.05% Tween-20 (dilution buffer). 9.8 ul of this protein mixture was then mixed with the compounds in the assay plate and incubated for one hour at room temperature. Reaction mixtures with no compounds added were included as negative controls, while a His-tagged and biotinylated GST protein was included to track general assay performance. Nickel Chelate AlphaLISA Acceptor beads (cat. #AL108M, Perkin Elmer, MA) and AlphaScreen Streptavidin Donor beads (cat. #6760002, Perkin Elmer, Waltham, MA) were prepared separately in the dilution buffer as 4× stocks (80 ug/ml). The beads were then added to the assay plate sequentially with incubation at room temperature for 1-2 hours after each addition. Signals were recorded using EnVision 2104 Multilabel Plate Reader (Perkin Elmer, Waltham, MA) and titration curves were generated in GraphPad Prism (7.00, GraphPad, La Jolla, CA).

DCAF15 = DCAF15 (Homo sapiens, UniProt Q66K64); test: HTRF competition assay, binary interaction between compounds and DCAF15; type: binding; settings: competition with Alexa Fluor 647 tracer, His-tagged DCAF15 complex
Description: Example 7: Measurement of Binary Interaction Between Compounds And DCAF15 Using Homogeneous Time Resolved Fluorescence (HTRF)
DCAF15 interactions with test compounds were monitored using HTRF competition assays (Cisbio, Bedford, MA). Test compounds were first collected in a 384-well microplate (cat. #781280, Grenier Bio-One, Monroe, NC) as 10 mM stocks in 100% dimethyl sulfoxide (DMSO). A second stock plate (cat. #781280, Grenier Bio-One, Monroe, NC) was prepared through 3-fold serial dilution in DMSO of the afore-mentioned stocks using a Mosquito HTS dispenser (mosquito@ HTS, SPT Labtech, Boston, MA). 0.2 ul of these diluted stocks were then dispensed into a 384-well Optiplate (cat. #6007290, Perkin Elmer, Waltham, MA) in duplicate wells, to assemble the assay plate. The tracer molecule containing an Alexa Fluor 647 probe was prepared in 25 mM HEPES pH 7.5, 100 mM NaCl, 0.1 mg/ml BSA, 0.005% Tween 20, 0.5 mM TCEP (dilution buffer) to 612 nM (2.04×). Separately, His-tagged DCAF15 complex was prepared at 32 nM (4×) in the dilution buffer, and mAb Anti-6His-Eu cryptate Gold (cat. #61H12KLA, Cisbio, Bedford, MA) at 4× dilution in the detection buffer (cat. #61 DB9RDF, Cisbio, Bedford, MA). These two solutions were mixed and incubated for 15 min at room temperature. 9.8 ul of the tracer solution and 10 ul of the DCAF15/mAb Anti-6His-Eu cryptate Gold mixture were added sequentially to each well in the assay plate. Reaction mixtures with no DCAF15 added were included as positive controls. The final mixture was incubated for an hour at room temperature and spun down briefly before data collection at 615 nm and 666 nm using En Vision 2104 Multilabel Plate Reader (Perkin Elmer, Bedford, MA). Binding was estimated based on ratiometric analysis and titration curves were generated in GraphPad Prism (7.00, GraphPad, La Jolla, CA).

SMILES	EC50 (DCAF15/RBM39) [µM]	IC50 (DCAF15) [µM]
CC(C)C[C@H](NC(=O)c1cccc(S(=O)(=O)Nc2ccc(Cl)c3c(Cl)c[nH]c23)c1F)c1nc2ccccc2[nH]1 [Compound 213]	< 1	1 to 10
CC1(Oc2ccc(S(=O)(=O)Nc3ccc(Cl)c4c(Cl)c[nH]c34)cc2)CCN(CCO)CC1 [Compound 23, N-(3,4-dichloro-1H-indol-7-yl)-4-((1-(2-hydroxyethyl)-4-methylpiperidin-4-yl)oxy)benzenesulfonamide]	< 1	1 to 10
CC1(Oc2ccc(S(=O)(=O)Nc3ccc(Cl)c4c(Cl)c[nH]c34)cc2)CCNCC1 [Compound 22, N-(3,4-dichloro-1H-indol-7-yl)-4-((4-methylpiperidin-4-yl)oxy)benzenesulfonamide]	< 1	1 to 10
CCc1nc(CN(C)C(=O)c2ccc(S(=O)(=O)Nc3ccc(Cl)c4c(Cl)c[nH]c34)c(F)c2)no1 [Compound 177]	< 1	1 to 10
O=C(NCCOC1CCS(=O)(=O)CC1)c1ccc(S(=O)(=O)Nc2ccc(Cl)c3c(Cl)c[nH]c23)c(F)c1 [Compound 189]	< 1	< 1
O=C1CC[C@H](NC(=O)c2ccc(S(=O)(=O)Nc3ccc(Cl)c4c(Cl)c[nH]c34)c(F)c2)CN1 [Compound 157]	< 1	< 1
CNCCCCCOc1ccc(S(=O)(=O)Nc2ccc(Cl)c3c(Cl)c[nH]c23)cc1 [Compound 144]	< 1	1 to 10
O=S(=O)(Nc1ccc(Cl)c2c(Cl)c[nH]c12)c1ccc(Oc2ccc(F)cc2)cc1 [Compound 36]	1 to 10	10 to 100
O=C(c1cccc(S(=O)(=O)Nc2ccc(Cl)c3c(Cl)c[nH]c23)c1F)N1CCc2[nH]c(-c3ccccc3)nc2C1 [Compound 226]	< 1	1 to 10
CC(C)(C)OC(=O)N1CCC2(CC1)CN(C(=O)c1cccc(S(=O)(=O)Nc3ccc(Cl)c4c(Cl)c[nH]c34)c1F)CCO2 [Compound 224]	< 1	1 to 10
Cn1cc(CCOc2ccc(S(=O)(=O)Nc3ccc(Cl)c4c(Cl)c[nH]c34)cc2)c2ccccc21 [Compound 93]	> 100	> 100
O=C(NS(=O)(=O)c1ccc(Br)s1)c1ccc(Cl)cc1Cl [Tasisulam, tasisulam, reference compound]	1 to 10	
O=C(c1ccc(S(=O)(=O)Nc2ccc(Cl)c3c(Cl)c[nH]c23)c(F)c1)N1CCC(Oc2cccnc2)CC1 [Compound 220]	< 1	1 to 10
O=C(N[C@H]1CCc2ccccc21)c1ccc(S(=O)(=O)Nc2ccc(Cl)c3c(Cl)c[nH]c23)c(F)c1 [Compound 155]	> 100	> 100
O=S(=O)(Nc1ccc(Cl)c2c(Cl)c[nH]c12)c1ccc(Oc2ccccc2)c(Cl)c1 [Compound 34]	1 to 10	> 100
O=C(c1cccc(S(=O)(=O)Nc2ccc(Cl)c3c(Cl)c[nH]c23)c1F)N1CC[C@H](n2ccnn2)C1 [Compound 216]	< 1	< 1
CC(C)C[C@H](NC(=O)c1ccc(S(=O)(=O)Nc2ccc(Cl)c3c(Cl)c[nH]c23)c(F)c1)c1nc2ccccc2[nH]1 [Compound 212]	1 to 10	1 to 10
CC(C)(C)OC(=O)NC1(CNC(=O)c2ccc(S(=O)(=O)Nc3ccc(Cl)c4c(Cl)c[nH]c34)c(F)c2)CC1 [Compound 163]	1 to 10	1 to 10
CN(C)C(=O)c1ccc(CCNC(=O)c2ccc(S(=O)(=O)Nc3ccc(Cl)c4c(Cl)c[nH]c34)c(F)c2)cc1 [Compound 195]	1 to 10	1 to 10
O=S(=O)(Nc1ccc(Cl)c2c(Cl)c[nH]c12)c1ccc(OC(F)F)c(F)c1 [Compound 38]	< 1	1 to 10
Cc1ccnc([C@@H](NC(=O)c2ccc(S(=O)(=O)Nc3ccc(Cl)c4c(Cl)c[nH]c34)c(F)c2)C2CC2)c1 [Compound 180]	1 to 10	1 to 10

SMILES	EC50 (DCAF15/RBM39) [µM]	IC50 (DCAF15) [µM]
CCc1nc(CN(C)C(=O)c2cccc(S(=O)(=O)Nc3ccc(Cl)c4c(Cl)c[nH]c34)c2F)no1 [Compound 176]	< 1	1 to 10
CCc1cnc(N2CCC(CCCOc3cccc(S(=O)(=O)Nc4ccc(Cl)c5c(Cl)c[nH]c45)c3)CC2)nc1 [Compound 100]	> 100	> 100
CC(C)CNC(=O)c1ccc(S(=O)(=O)Nc2ccc(Cl)c3c(Cl)c[nH]c23)cc1 [Compound 239]	< 1	> 100
O=S(=O)(Nc1ccc(Cl)c2c(Cl)c[nH]c12)c1cccc(OC[C@@H]2CCCNC2)c1 [Compound 45]	< 1	10 to 100
O=C(NCCCC(=O)N1CCCC1)c1ccc(S(=O)(=O)Nc2ccc(Cl)c3c(Cl)c[nH]c23)c(F)c1 [Compound 207]	< 1	< 1
COCCOc1ccc(S(=O)(=O)Nc2ccc(Cl)c3c(Cl)c[nH]c23)cc1Br [Compound 231]	1 to 10	1 to 10
Cn1cc(CCOc2cccc(S(=O)(=O)Nc3ccc(Cl)c4c(Cl)c[nH]c34)c2)c2ccccc21 [Compound 92]	10 to 100	> 100
Cc1ccnc([C@@H](NC(=O)c2cccc(S(=O)(=O)Nc3ccc(Cl)c4c(Cl)c[nH]c34)c2F)C2CC2)c1 [Compound 185]	1 to 10	1 to 10
O=S(=O)(Nc1ccc(Cl)c2c(Cl)c[nH]c12)c1ccc(OC[C@H]2[C@@H]3CNC[C@@H]32)cc1 [Compound 48]	< 1	10 to 100
O=C(c1ccc(S(=O)(=O)Nc2ccc(Cl)c3c(Cl)c[nH]c23)c(F)c1)N1CC[C@H](n2ccnn2)C1 [Compound 217]	< 1	< 1
NCCc1ccc(COc2ccc(S(=O)(=O)Nc3ccc(Cl)c4c(Cl)c[nH]c34)cc2)cc1 [Compound 60]	1 to 10	1 to 10
CC(C)CNC(=O)c1ccc(S(=O)(=O)Nc2ccc(Cl)c3c(Cl)c[nH]c23)c(F)c1 [Compound 240]	< 1	1 to 10
Cc1cc(CNC(=O)c2cccc(S(=O)(=O)Nc3ccc(Cl)c4c(Cl)c[nH]c34)c2F)nn1C [Compound 174]	< 1	1 to 10
NCCc1ccc(COc2cccc(S(=O)(=O)Nc3ccc(Cl)c4c(Cl)c[nH]c34)c2)cc1 [Compound 59]	1 to 10	10 to 100
O=S(=O)(Nc1ccc(Cl)c2c(Cl)c[nH]c12)c1cccc(OCCCC2CCNCC2)c1 [Compound 98]	1 to 10	10 to 100
CNCCCCCCOc1ccc(S(=O)(=O)Nc2ccc(Cl)c3c(Cl)c[nH]c23)cc1 [Compound 148]	< 1	1 to 10
O=C(c1cccc(S(=O)(=O)Nc2ccc(Cl)c3c(Cl)c[nH]c23)c1F)N1CCC(Oc2cccnc2)CC1 [Compound 219]	< 1	< 1
O=S(=O)(Nc1ccc(Cl)c2c(Cl)c[nH]c12)c1cccc(O[C@H]2CC[C@H](OCc3ccccc3)CC2)c1 [Compound 18]	> 100	> 100
NS(=O)(=O)c1ccc(S(=O)(=O)Nc2cccc3c(Cl)c[nH]c23)cc1 [Indisulam, indisulam, reference compound]	< 1	
Nc1ccc(S(=O)(=O)Nc2cnc3c(Cl)cccc3n2)cc1 [CQS, cloroquinoxaline sulfonamide, reference compound]	1 to 10	

Reference: US20240327351A1, “AMIDE AND ETHER SUBSTITUTED N-(1H-INDOL-7-YL)BENZENESULFONAMIDES AND USES THEREOF” (TRIANA BIOMEDICINES, INC., priority 2021, published 2024)
